Assay results as given in US10604527B2, “Pyrazine compounds for the treatment of hepatitis B infection” (Hoffmann-La Roche Inc., priority 2016, dated 2020).

System: HBV
Test: HBV inhibition assay in HepG2.2.15 cells (extracellular HBV DNA by qPCR)
Type: cell-based
Conditions: Hepatitis B virus, 120 h, extracellular HBV DNA in culture supernatant by qPCR, five days after compound treatment
Experimental: HepG2.2.15 is a stably-transfected cell line containing the HBV genome. It is derived from the hepatoblastoma cell line Hep G2 (American Type Culture Collection, ATCC® HB-8065™) by the published procedures described in reference: M A Selles et al. Proc. Natl. Acad. Sci. USA 1987, 84, 1005-1009. The cell line was maintained in Dulbecco's modified Eagle's medium (DMEM)-F12 medium supplemented with 10% fetal bovine serum, 20 mM L-glutamine, 0.1 mM NEAA, 50 U/mL penicillin, 50 μg/mL streptomycin, and 0.3 mg/mL of G418.
HepG2.2.15 cells were seeded into 96-well plates at a density of 3×10^4 cells per well in 100 μL DMEM/F12 media (Life Science, Cat. #: 11320-033) supplemented with 2.5% fetal bovine serum, 20 mM L-glutamine, 0.1 mM NEAA, 50 U/mL penicillin, 50 U/mL streptomycin and cultured overnight at 37° C. The test compounds were serially half-log diluted in DMSO, then diluted 100 times in culture media. 100 μL diluted solution of tested compounds were added into the plates to reach 0.5% final concentration of DMSO in every well. Five days after compound treatment, culture supernatant was collected for further analysis.
For quantitative PCR detection of extracellular HBV DNA, culture supernatant was processed by 500 μg/mL Proteinase K (Sigma, Cat. #: P2308) digestion at 50° C. for 1 hour. After heat inactivation of the enzyme at 95° C. for 15 minutes, the samples were subjected to HBV DNA quantification by qPCR. The effective compound concentration at which HBV replication inhibited by 50% (EC50) was determined.

| SMILES | EC50 |
| --- | --- |
| CC(C)Oc1cnn2c1CN(C(=O)Nc1ccc(F)c(Cl)c1)C(C)C2 (stereo not drawn) [Example 1, N-(3-chloro-4-fluoro-phenyl)-3-isopropoxy-6-methyl-6,7-dihydro-4H-pyrazolo[1,5-a]pyrazine-5-carboxamide] | 18 nM |
| CC1Cn2ncc(OC3CCCC3)c2CN1C(=O)Nc1ccc(F)c(Cl)c1 (stereo not drawn) [Example 2, N-(3-chloro-4-fluoro-phenyl)-3-(cyclopentoxy)-6-methyl-6,7-dihydro-4H-pyrazolo[1,5-a]pyrazine-5-carboxamide] | 8 nM |
| C[C@H]1Cn2ncc(OC3CCOC3)c2CN1C(=O)Nc1ccc(F)c(Cl)c1 (stereo partly drawn) [Example 3, (6S)-N-(3-chloro-4-fluoro-phenyl)-6-methyl-3-tetrahydrofuran-3-yloxy-6,7-dihydro-4H-pyrazolo[1,5-a]pyrazine-5-carboxamide] | 151 nM |
| C[C@H]1Cn2ncc(OC3CCOCC3)c2CN1C(=O)Nc1ccc(F)c(Cl)c1 [Example 4, (6S)-N-(3-chloro-4-fluoro-phenyl)-6-methyl-3-tetrahydropyran-4-yloxy-6,7-dihydro-4H-pyrazolo[1,5-a]pyrazine-5-carboxamide] | 107 nM |
| C[C@H]1Cn2ncc(OC3CCNC3=O)c2CN1C(=O)Nc1ccc(F)c(Cl)c1 (stereo partly drawn) [Example 5, (6S)-N-(3-chloro-4-fluoro-phenyl)-6-methyl-3-(2-oxopyrrolidin-3-yl)oxy-6,7-dihydro-4H-pyrazolo[1,5-a]pyrazine-5-carboxamide] | 434 nM |
| C[C@H]1Cn2ncc(OC3CCN(S(C)(=O)=O)CC3)c2CN1C(=O)Nc1ccc(F)c(Cl)c1 [Example 6, (6S)-N-(3-chloro-4-fluoro-phenyl)-6-methyl-3-[(1-methylsulfonyl-4-piperidyl)oxy]-6,7-dihydro-4H-pyrazolo[1,5-a]pyrazine-5-carboxamide] | 310 nM |
| C[C@H]1Cn2ncc(Oc3ccccn3)c2CN1C(=O)Nc1cc(F)c(F)c(F)c1 [Example 7, (6S)-6-methyl-3-(2-pyridyloxy)-N-(3,4,5-trifluorophenyl)-6,7-dihydro-4H-pyrazolo[1,5-a]pyrazine-5-carboxamide] | 984 nM |
| C[C@H]1Cn2ncc(Oc3ncccn3)c2CN1C(=O)Nc1cc(F)c(F)c(F)c1 [Example 8, (6S)-6-methyl-3-pyrimidin-2-yloxy-N-(3,4,5-trifluorophenyl)-6,7-dihydro-4H-pyrazolo[1,5-a]pyrazine-5-carboxamide] | 713 nM |
| C[C@H]1Cn2ncc(Oc3ccc(F)cn3)c2CN1C(=O)Nc1cc(F)c(F)c(F)c1 [Example 9, (6S)-3-[(5-fluoro-2-pyridyl)oxy]-6-methyl-N-(3,4,5-trifluorophenyl)-6,7-dihydro-4H-pyrazolo[1,5-a]pyrazine-5-carboxamide] | 240 nM |
| CC1Cn2ncc(S(=O)(=O)C3CCOC3)c2CN1C(=O)Nc1ccc(F)c(Cl)c1 (stereo not drawn) [Example 10, N-(3-chloro-4-fluoro-phenyl)-6-methyl-3-tetrahydrofuran-3-ylsulfonyl-6,7-dihydro-4H-pyrazolo[1,5-a]pyrazine-5-carboxamide] | 32 nM |
| CC1Cn2ncc(S(=O)(=O)C3CCCC3)c2CN1C(=O)Nc1ccc(F)c(Cl)c1 (stereo not drawn) [Example 11, N-(3-chloro-4-fluoro-phenyl)-3-cyclopentylsulfonyl-6-methyl-6,7-dihydro-4H-pyrazolo[1,5-a]pyrazine-5-carboxamide] | 11 nM |
| CC1Cn2ncc(S(=O)(=O)C(C)C)c2CN1C(=O)Nc1ccc(F)c(Cl)c1 (stereo not drawn) [Example 12, N-(3-chloro-4-fluoro-phenyl)-3-isopropylsulfonyl-6-methyl-6,7-dihydro-4H-pyrazolo[1,5-a]pyrazine-5-carboxamide] | 11 nM |
| CC(C)CS(=O)(=O)c1cnn2c1CN(C(=O)Nc1ccc(F)c(Cl)c1)C(C)C2 (stereo not drawn) [Example 13, N-(3-chloro-4-fluoro-phenyl)-3-isobutylsulfonyl-6-methyl-6,7-dihydro-4H-pyrazolo[1,5-a]pyrazine-5-carboxamide] | 24 nM |
| C[C@H]1Cn2ncc(S(=O)(=O)C3CCOC3)c2CN1C(=O)Nc1ccc(F)c(Cl)c1 (stereo partly drawn) [Example 14, (6S)-N-(3-chloro-4-fluoro-phenyl)-6-methyl-3-tetrahydrofuran-3-ylsulfonyl-6,7-dihydro-4H-pyrazolo[1,5-a]pyrazine-5-carboxamide] | 55 nM |
| C[C@H]1Cn2ncc(S(=O)(=O)C3CCOCC3)c2CN1C(=O)Nc1ccc(F)c(Cl)c1 [Example 15, (6S)-N-(3-chloro-4-fluoro-phenyl)-6-methyl-3-tetrahydropyran-4-ylsulfonyl-6,7-dihydro-4H-pyrazolo[1,5-a]pyrazine-5-carboxamide] | 97 nM |
| C[C@H]1Cn2ncc(S(=O)(=O)C3CCOC3)c2CN1C(=O)Nc1cc(F)c(F)c(F)c1 (stereo partly drawn) [Example 16, (6S)-6-methyl-3-tetrahydrofuran-3-ylsulfonyl-N-(3,4,5-trifluorophenyl)-6,7-dihydro-4H-pyrazolo[1,5-a]pyrazine-5-carboxamide] | 77 nM |
| C[C@H]1Cn2ncc(S(=O)(=O)C3CCOC3)c2CN1C(=O)Nc1ccnc(Cl)c1 (stereo partly drawn) [Example 17, (6S)-N-(2-chloro-4-pyridyl)-6-methyl-3-tetrahydrofuran-3-ylsulfonyl-6,7-dihydro-4H-pyrazolo[1,5-a]pyrazine-5-carboxamide] | 871 nM |
| CC(C)S(=O)(=O)c1cnn2c1CN(C(=O)Nc1ccnc(Cl)c1)[C@@H](C)C2 [Example 18, (6S)-N-(2-chloro-4-pyridyl)-3-isopropylsulfonyl-6-methyl-6,7-dihydro-4H-pyrazolo[1,5-a]pyrazine-5-carboxamide] | 471 nM |
| C[C@H]1Cn2ncc(S(=O)(=O)C3CCCC3)c2CN1C(=O)Nc1ccnc(Cl)c1 [Example 19, (6S)-N-(2-chloro-4-pyridyl)-3-cyclopentylsulfonyl-6-methyl-6,7-dihydro-4H-pyrazolo[1,5-a]pyrazine-5-carboxamide] | 134 nM |
| CC(C)S(=O)(=O)c1cnn2c1CN(C(=O)Nc1cc(F)c(F)c(F)c1)[C@@H](C)C2 [Example 20, (6S)-3-isopropylsulfonyl-6-methyl-N-(3,4,5-trifluorophenyl)-6,7-dihydro-4H-pyrazolo[1,5-a]pyrazine-5-carboxamide] | 21 nM |
| CC(C)S(=O)(=O)c1cnn2c1CN(C(=O)Nc1ccnc(C(F)F)c1)[C@@H](C)C2 [Example 21, (6S)-N-[2-(difluoromethyl)-4-pyridyl]-3-isopropylsulfonyl-6-methyl-6,7-dihydro-4H-pyrazolo[1,5-a]pyrazine-5-carboxamide] | 272 nM |
| C[C@H]1Cn2ncc(S(=O)(=O)C3CC3)c2CN1C(=O)Nc1cc(F)c(F)c(F)c1 [Example 22, (6S)-3-cyclopropylsulfonyl-6-methyl-N-(3,4,5-trifluorophenyl)-6,7-dihydro-4H-pyrazolo[1,5-a]pyrazine-5-carboxamide] | 78 nM |
| C[C@H]1Cn2ncc(S(=O)(=O)N3CCCC3)c2CN1C(=O)Nc1ccc(F)c(Cl)c1 [Example 23, (6S)-N-(3-chloro-4-fluoro-phenyl)-6-methyl-3-pyrrolidin-1-ylsulfonyl-6,7-dihydro-4H-pyrazolo[1,5-a]pyrazine-5-carboxamide] | 78 nM |
| C[C@H]1Cn2ncc(S(=O)(=O)N(C)C)c2CN1C(=O)Nc1ccc(F)c(Cl)c1 [Example 24, (6S)-N-(3-chloro-4-fluoro-phenyl)-3-(dimethylsulfamoyl)-6-methyl-6,7-dihydro-4H-pyrazolo[1,5-a]pyrazine-5-carboxamide] | 142 nM |
